ChEMBL document CHEMBL1141332, “Cytotoxic metabolites from an Indonesian sponge Lendenfeldia sp” (J Nat Prod, 2007)

Key:
Type in all cases: functional
[1] = tested on: U-251; test: Cytotoxicity against human U251cells
[2] = tested on: LOX IMVI; test: Cytotoxicity against human LOX IMVI cells
[3] = tested on: NCI-H460; test: Cytotoxicity against human NCI-H460 cells
[4] = tested on: BT-549; test: Cytotoxicity against human BT549 cells
[5] = tested on: PC-3; test: Cytotoxicity against human PC3 cells
[6] = tested on: SF-295; test: Cytotoxicity against human SF295 cells
[7] = tested on: UACC-62; test: Cytotoxicity against human UACC62 cells
[8] = tested on: OVCAR-5; test: Cytotoxicity against human OVCAR5 cells
[9] = tested on: HOP-92; test: Cytotoxicity against human HOP92 cells
[10] = tested on: TK-10; test: Cytotoxicity against human TK10 cells
[11] = tested on: M14; test: Cytotoxicity against human M14 cells
[12] = tested on: SNB-75; test: Cytotoxicity against human SNB75 cells
[13] = tested on: SNB-19; test: Cytotoxicity against human SNB19 cells; conditions: read-out: Log LC50 (the source's name) (converted)
[14] = tested on: HL-60; test: Cytotoxicity against human HL60 cells; conditions: Homo sapiens, HL-60
[15] = tested on: IGROV-1; test: Cytotoxicity against human IGROV1 cells
[16] = tested on: KM12; test: Cytotoxicity against human KM12 cells
[17] = tested on: MDA-MB-231; test: Cytotoxicity against human MDA-MB-231 cells
[18] = tested on: A498; test: Cytotoxicity against human A498 cells
[19] = tested on: NCI/ADR-RES; test: Cytotoxicity against human NCI/ADR-RES cells
[20] = tested on: SK-MEL-2; test: Cytotoxicity against human SK-MEL-2 cells
[21] = tested on: RPMI-8226; test: Cytotoxicity against human RPMI8226 cells
[22] = tested on: DU-145; test: Cytotoxicity against human DU145 cells
[23] = tested on: NCI-H322M; test: Cytotoxicity against human NCI-H322M cells
[24] = tested on: MOLT-4; test: Cytotoxicity against human MOLT4 cells
[25] = tested on: MCF7; test: Cytotoxicity against human MCF7 cells
[26] = tested on: SK-OV-3; test: Cytotoxicity against human SK-OV-3 cells
[27] = tested on: UACC-257; test: Cytotoxicity against human UACC257 cells
[28] = tested on: HCC 2998; test: Cytotoxicity against human HCC2998 cells
[29] = tested on: SW-620; test: Cytotoxicity against human SW620 cells
[30] = tested on: A549; test: Cytotoxicity against human A549 cells
[31] = tested on: NCI-H522; test: Cytotoxicity against human NCI-H522 cells
[32] = tested on: HCT-116; test: Cytotoxicity against human HCT116 cells
[33] = tested on: SF-539; test: Cytotoxicity against human SF539 cells
[34] = tested on: SK-MEL-5; test: Cytotoxicity against human SK-MEL-5 cells
[35] = tested on: HOP-62; test: Cytotoxicity against human HOP62 cells
[36] = tested on: OVCAR-8; test: Cytotoxicity against human OVCAR8 cells
[37] = tested on: RXF 393; test: Cytotoxicity against human RXF393 cells
[38] = tested on: K562; test: Cytotoxicity against human K562 cells
[39] = tested on: MDA-MB-435; test: Cytotoxicity against human MDA-MB-435 cells
[40] = tested on: OVCAR-4; test: Cytotoxicity against human OVCAR4 cells
[41] = tested on: 786-0; test: Cytotoxicity against human 786-0 cells
[42] = tested on: SF-268; test: Cytotoxicity against human SF268 cells
[43] = tested on: SK-MEL-28; test: Cytotoxicity against human SK-MEL-28 cells
[44] = tested on: COLO 205; test: Cytotoxicity against human COLO205 cells
[45] = tested on: HT-29; test: Cytotoxicity against human HT29 cells
[46] = read-out: Log LC50 (the source's name) (converted)

CC1OC(=O)[C@H]2[C@H]1[C@@H](O)C[C@H]1[C@]3(C)CC[C@H]4C(C)(C)CCC[C@]4(C)[C@H]3C[C@@H](O)[C@]21C (stereo partly drawn)
GI50 [1]: 17 µM
CC50 [1, 46]: 61.7 µM
TGI ([1]; read-out: Log TGI (converted)): 32.4 µM
GI50 [2]: 17.4 µM
CC50 [2, 46]: 56.2 µM
TGI ([2]; read-out: Log TGI (converted)): 30.9 µM
GI50 [3]: 20.9 µM
CC50 [3, 46]: 89.1 µM
TGI ([3]; read-out: Log TGI (converted)): 42.7 µM
GI50 [4]: 17 µM
LC50 [4]: 64.6 µM
TGI ([4]; read-out: Log TGI (converted)): 33.1 µM
GI50 [5]: 17 µM
LC50 [5]: > 100 µM
TGI ([5]; read-out: Log TGI (converted)): 55 µM
GI50 [6]: 19.5 µM
CC50 [6, 46]: > 100 µM
TGI ([6]; read-out: Log TGI (converted)): 50.1 µM
GI50 [7]: 19.5 µM
CC50 [7, 46]: 97.7 µM
TGI ([7]; read-out: Log TGI (converted)): 43.7 µM
GI50 [8]: 20.9 µM
CC50 [8, 46]: 75.9 µM
TGI ([8]; read-out: Log TGI (converted)): 39.8 µM
GI50 [9]: 17 µM
CC50 [9, 46]: 93.3 µM
TGI ([9]; read-out: Log TGI (converted)): 39.8 µM
GI50 [10]: 30.2 µM
LC50 [10]: > 100 µM
TGI ([10]; read-out: Log TGI (converted)): 79.4 µM
GI50 [11]: 19.1 µM
CC50 [11, 46]: 69.2 µM
TGI ([11]; read-out: Log TGI (converted)): 36.3 µM
GI50 [12]: 20 µM
CC50 [12, 46]: > 100 µM
TGI ([12]; read-out: Log TGI (converted)): 47.9 µM
CC50 [13]: 17 µM
GI50 [14]: 11.7 µM
CC50 [14, 46]: > 100 µM
TGI ([14]; read-out: Log TGI (converted)): 36.3 µM
GI50 [15]: 30.9 µM
CC50 [15, 46]: > 100 µM
TGI ([15]; read-out: Log TGI (converted)): 81.3 µM
GI50 [16]: 25.1 µM
CC50 [16, 46]: > 100 µM
TGI ([16]; read-out: Log TGI (converted)): 69.2 µM
GI50 [17]: 19.1 µM
LC50 [17]: 87.1 µM
TGI ([17]; read-out: Log TGI (converted)): 40.7 µM
GI50 [18]: 18.6 µM
LC50 [18]: 72.4 µM
TGI ([18]; read-out: Log TGI (converted)): 37.2 µM
GI50 [19]: 18.6 µM
LC50 [19]: 83.2 µM
TGI ([19]; read-out: Log TGI (converted)): 39.8 µM
GI50 [20]: 25.1 µM
CC50 [20, 46]: > 100 µM
TGI ([20]; read-out: Log TGI (converted)): 51.3 µM
GI50 [21]: 16.2 µM
CC50 [21, 46]: > 100 µM
TGI ([21]; read-out: Log TGI (converted)): 51.3 µM
GI50 [22]: 17 µM
LC50 [22]: 72.4 µM
TGI ([22]; read-out: Log TGI (converted)): 34.7 µM
GI50 [23]: 31.6 µM
CC50 [23, 46]: > 100 µM
TGI ([23]; read-out: Log TGI (converted)): 93.3 µM
GI50 [24]: 4.79 µM
CC50 [24, 46]: > 100 µM
TGI ([24]; read-out: Log TGI (converted)): 20.9 µM
GI50 [25]: 34.7 µM
LC50 [25]: > 100 µM
TGI ([25]; read-out: Log TGI (converted)): > 100 µM
GI50 [26]: 38.9 µM
CC50 [26, 46]: > 100 µM
TGI ([26]; read-out: Log TGI (converted)): > 100 µM
GI50 [27]: 28.2 µM
CC50 [27, 46]: > 100 µM
TGI ([27]; read-out: Log TGI (converted)): 83.2 µM
GI50 [28]: 15.5 µM
CC50 [28, 46]: 56.2 µM
TGI ([28]; read-out: Log TGI (converted)): 29.5 µM
GI50 [29]: 12 µM
CC50 [29, 46]: 52.5 µM
TGI ([29]; read-out: Log TGI (converted)): 25.1 µM
GI50 [30]: 15.8 µM
CC50 [30, 46]: 89.1 µM
TGI ([30]; read-out: Log TGI (converted)): 37.2 µM
GI50 [31]: 19.5 µM
CC50 [31, 46]: 77.6 µM
TGI ([31]; read-out: Log TGI (converted)): 38.9 µM
GI50 [32]: 11.2 µM
CC50 [32, 46]: 47.9 µM
TGI ([32]; read-out: Log TGI (converted)): 23.4 µM
GI50 [33]: 19.1 µM
CC50 [33, 46]: 67.6 µM
TGI ([33]; read-out: Log TGI (converted)): 36.3 µM
GI50 [34]: 13.5 µM
CC50 [34, 46]: 52.5 µM
TGI ([34]; read-out: Log TGI (converted)): 26.3 µM
GI50 [35]: 15.1 µM
CC50 [35, 46]: 55 µM
TGI ([35]; read-out: Log TGI (converted)): 28.8 µM
GI50 [36]: 25.1 µM
CC50 [36, 46]: > 100 µM
TGI ([36]; read-out: Log TGI (converted)): 63.1 µM
GI50 [37]: 14.8 µM
LC50 [37]: 58.9 µM
TGI ([37]; read-out: Log TGI (converted)): 29.5 µM
GI50 [38]: 29.5 µM
CC50 [38, 46]: > 100 µM
TGI ([38]; read-out: Log TGI (converted)): 55 µM
GI50 [39]: 19.1 µM
LC50 [39]: > 100 µM
TGI ([39]; read-out: Log TGI (converted)): 51.3 µM
GI50 [40]: 20.9 µM
CC50 [40, 46]: > 100 µM
TGI ([40]; read-out: Log TGI (converted)): 60.3 µM
GI50 [41]: 15.8 µM
CC50 [41, 46]: 56.2 µM
TGI ([41]; read-out: Log TGI (converted)): 30.2 µM
GI50 [42]: 22.4 µM
CC50 [42, 46]: > 100 µM
TGI ([42]; read-out: Log TGI (converted)): 49 µM
GI50 [43]: 20 µM
CC50 [43, 46]: 66.1 µM
TGI ([43]; read-out: Log TGI (converted)): 36.3 µM
GI50 [44]: 15.8 µM
CC50 [44, 46]: 66.1 µM
TGI ([44]; read-out: Log TGI (converted)): 32.4 µM
GI50 [45]: 17.4 µM
CC50 [45, 46]: 83.2 µM
TGI ([45]; read-out: Log TGI (converted)): 38 µM
